The IC50 is the concentration needed to halve the response being measured. Read a low IC50 as greater potency in that assay.

For assay [1], the target named is T1, Gastrin/cholecystokinin type B receptor (Mus musculus, UniProt P56481).
T1 sequence (P56481 whole entry): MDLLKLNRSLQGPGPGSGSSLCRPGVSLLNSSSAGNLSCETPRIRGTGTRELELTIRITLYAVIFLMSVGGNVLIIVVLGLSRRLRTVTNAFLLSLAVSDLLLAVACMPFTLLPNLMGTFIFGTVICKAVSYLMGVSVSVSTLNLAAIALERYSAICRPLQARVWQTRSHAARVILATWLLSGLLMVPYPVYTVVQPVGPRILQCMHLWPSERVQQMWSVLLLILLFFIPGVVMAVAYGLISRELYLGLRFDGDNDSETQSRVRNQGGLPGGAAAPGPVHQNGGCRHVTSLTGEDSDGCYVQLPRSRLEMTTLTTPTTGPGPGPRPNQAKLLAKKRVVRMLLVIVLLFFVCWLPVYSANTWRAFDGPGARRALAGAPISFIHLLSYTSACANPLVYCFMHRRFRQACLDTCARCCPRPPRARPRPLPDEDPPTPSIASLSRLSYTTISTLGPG
In words: Concentration producing half-maximal inhibition of specific binding of [125I]- CCK-8 to CCK receptors mouse forebrain membranes (CCK-B). Format: tissue-based, Brain.

Assay [2] addresses Cholecystokinin receptor (Mus musculus) (UniProt O08786+P56481). In words: Ratio of CCK-A receptor to CCK-B receptor was determined. Format: protein assay.
Assay [3] deals with T2, Cholecystokinin receptor type A (Mus musculus, UniProt O08786).
T2 sequence (O08786 whole entry): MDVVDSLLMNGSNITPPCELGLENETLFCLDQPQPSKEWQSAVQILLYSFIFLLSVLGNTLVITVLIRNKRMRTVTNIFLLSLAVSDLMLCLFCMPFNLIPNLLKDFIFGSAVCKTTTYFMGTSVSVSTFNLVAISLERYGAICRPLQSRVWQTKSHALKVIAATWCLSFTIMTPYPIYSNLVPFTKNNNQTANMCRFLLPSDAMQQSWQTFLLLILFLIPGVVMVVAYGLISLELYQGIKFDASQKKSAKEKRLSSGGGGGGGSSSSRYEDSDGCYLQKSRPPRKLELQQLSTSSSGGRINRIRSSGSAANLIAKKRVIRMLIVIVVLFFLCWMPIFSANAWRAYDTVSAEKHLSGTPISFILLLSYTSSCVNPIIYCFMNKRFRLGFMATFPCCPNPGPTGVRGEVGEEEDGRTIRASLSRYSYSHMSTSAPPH
Briefly: Concentration producing half-maximal inhibition of specific binding of [125I]- CCK-8 to CCK receptors on mouse pancreatic membranes (CCK-A).

The structures appear in SMILES notation. Residues, ends and D or L forms follow the SMILES beside them. *: point of attachment. NHPhenethyl = c1ccc(CCN*)cc1; Boc = CC(C)(C)OC(=O)*

`CC(C)C[C@H](NC(=O)[C@H](Cc1c[nH]c2ccccc12)NC(=O)OC(C)(C)C)C(=O)N1C[C@@H](Cc2ccccc2)NC(=O)[C@@H]1CC(=O)O`: the IC50 in assay [1] stood at 17 µM; in assay [3], 3.6 µM. For the same compound, in assay [2], the Ratio worked out at 0.21.

For `CCCC[C@H](NC(=O)c1c[nH]c2ccccc12)C(=O)N1C[C@H](Cc2ccccc2)NC(=O)[C@@H]1CC(=O)O`, the IC50 in assay [1] was greater than 100 µM; in assay [3], 1.4 µM.

Turning to `CC(C)C[C@H](NC(=O)[C@H](Cc1c[nH]c2ccccc12)NC(=O)OC(C)(C)C)C(=O)N1CC(=O)N[C@H](Cc2ccccc2)C1`, the figures for the IC50 in assay [1] and in assay [3] were 39 µM and 0.046 µM, respectively. The Ratio in assay [2] amounted to 0.0012.

For `CC(C)C[C@H](NC(=O)[C@H](Cc1c[nH]c2ccccc12)NC(=O)OCc1ccccc1)C(=O)N1CC(=O)N[C@@H](Cc2ccccc2)C1`, the IC50 in assay [1] is 18 µM; in assay [3], 0.064 µM. In addition, in assay [2], the Ratio came out at 0.0036.

In the case of `CC(C)C[C@H](NC(=O)[C@H](Cc1c[nH]c2ccccc12)NC(=O)OC(C)(C)C)C(=O)N1CC(=O)N[C@@H](Cc2ccccc2)C1`, the values for the 50% inhibitory concentration (IC50) in assay [1] and in assay [3] were 37 µM and 0.27 µM, respectively. Further, the Ratio in assay [2] stood at 0.0073.

For `CC(C)C[C@H](NC(=O)[C@H](Cc1c[nH]c2ccccc12)NC(=O)OC(C)(C)C)C(=O)N1C[C@H](c2ccccc2)NC(=O)[C@@H]1CC(=O)O`, the half-maximal inhibitory concentration (IC50) in assay [1] and in assay [3] was 9.4 µM each time. For the same compound, the Ratio in assay [2] was 1.

For `CC(C)C[C@H](NC(=O)[C@H](Cc1c[nH]c2ccccc12)NC(=O)OC(C)(C)C)C(=O)N1C[C@H](CCc2ccccc2)NC(=O)[C@@H]1CC(=O)O`, the IC50 is 8.2 µM in assay [1] and 0.63 µM in assay [3]. In addition, the Ratio in assay [2] is 0.077.

Turning to `CC(C)C[C@H](NC(=O)C(NC(=O)OC(C)(C)C)c1ccccc1)C(=O)N1CC(=O)N[C@@H](Cc2ccccc2)C1` (stereo not given in full), the IC50 in assay [1] is 10 µM; in assay [3], 24 µM. Besides, the Ratio in assay [2] was determined as 2.4.

Turning to `CC(C)C[C@H](NC(=O)[C@H](Cc1c[nH]c2ccccc12)NC(=O)/C=C/c1ccccc1)C(=O)N1CC(=O)N[C@@H](Cc2ccccc2)C1`, the figures for the IC50 in assay [1] and in assay [3] were greater than 100 µM and 0.52 µM, respectively.

`CCCC[C@H](NC(=O)Cc1c[nH]c2ccccc12)C(=O)N1C[C@H](Cc2ccccc2)NC(=O)[C@@H]1CC(=O)O`: the figures for the IC50 in assay [1] and in assay [3] were 1.2 µM and 7.2 µM, respectively. Besides, the Ratio in assay [2] was found to be 6.

As for `CC(C)C[C@H](NC(=O)[C@H](Cc1c[nH]c2ccccc12)NC(=O)OC(C)(C)C)C(=O)N1C[C@@H](Cc2ccccc2)NC(=O)[C@H]1CC(=O)O`, the half-maximal inhibitory concentration (IC50) worked out at 70 µM in assay [1] and 6.3 µM in assay [3]. In assay [2], the Ratio was 0.09.

As for `CC(C)C[C@H](NC(=O)[C@@H](N)Cc1c[nH]c2ccccc12)C(=O)N1C[C@H](Cc2ccccc2)NC(=O)[C@@H]1CC(=O)O`, the figures for the IC50 in assay [1] and in assay [3] were 15 µM and 51 µM, respectively. Also, in assay [2], the Ratio was determined as 3.4.

Take `CC(C)C[C@H](NC(=O)CCc1c[nH]c2ccccc12)C(=O)N1C[C@H](Cc2ccccc2)NC(=O)[C@@H]1CC(=O)O`: the IC50 in assay [1] was found to be 8.9 µM; in assay [3], 56 µM. Moreover, in assay [2], the Ratio is 6.3.

`CC(C)C[C@H](NC(=O)[C@H](Cc1c[nH]c2ccccc12)NC(=O)OC(C)(C)C)C(=O)N1C[C@H](Cc2ccccc2)NC(=O)[C@H]1CC(=O)O` (mixture of isomers): the values for the IC50 in assay [1] and in assay [3] were 7.4 µM and 2.8 µM, respectively. The Ratio in assay [2] stood at 0.38.

With `CC(C)C[C@H](NC(=O)[C@H](Cc1c[nH]c2ccccc12)NC(=O)OC(C)(C)C)C(=O)N[C@@H](CC(=O)O)C(=O)NCCc1ccccc1` (Boc-Trp-Leu-Asp-NHPhenethyl), the Ratio in assay [2] came to 10.

For `CC(C)C[C@H](NC(=O)[C@H](Cc1c[nH]c2ccccc12)NC(=O)OC(C)(C)C)C(=O)N1C[C@H](Cc2ccccc2)NC(=O)[C@@H]1CC(=O)O`, the IC50 in assay [1] is 61 µM; in assay [3], 0.84 µM. Besides, the Ratio in assay [2] came out at 0.014.

On to `CCOC(=O)N[C@@H](Cc1c[nH]c2ccccc12)C(=O)N[C@@H](CC(C)C)C(=O)N1CC(=O)N[C@@H](Cc2ccccc2)C1`, for which the IC50 in assay [1] was 38 µM; in assay [3], 0.43 µM. The Ratio in assay [2] came to 0.011.

`CC(C)C[C@H](NC(=O)Cc1c[nH]c2ccccc12)C(=O)N1C[C@H](Cc2ccccc2)NC(=O)[C@@H]1CC(=O)O`: the IC50 was 2.5 µM in assay [1] and 13 µM in assay [3]. The Ratio in assay [2] stood at 5.2.

Take `CC(C)C[C@H](NC(=O)[C@@H](Cc1c[nH]c2ccccc12)NC(=O)OC(C)(C)C)C(=O)N1CC(=O)N[C@@H](Cc2ccccc2)C1`: the IC50 in assay [1] was greater than 100 µM; in assay [3], 5.5 µM.

With `CC(C)C[C@H](NC(=O)[C@H](Cc1c[nH]c2ccccc12)NC(=O)OCc1ccccc1)C(=O)N1CC(=O)N[C@H](Cc2ccccc2)C1`, the values for the IC50 in assay [1] and in assay [3] were 15 µM and 0.014 µM, respectively. Moreover, in assay [2], the Ratio came out at 0.0009.
